The source of these data is paper PMC11472313, “Development of Fragment-Based Inhibitors of the Bacterial Deacetylase LpxC with Low Nanomolar Activity” (Journal of Medicinal Chemistry, 2024).

≈ marks a conversion by molar mass, not a printed value. A value given as a limit tells only on which side of the number the result lay.

One experiment has as its system P. aeruginosa ATCC 27853. The experiment is described as follows: disc diffusion assay. It is filed as cell-based. The note with it: 0.15 μmol per 6 mm disc. The method, then: (§1) In the performed disc diffusion assays, indole derivatives (S)-13h, (S)-13i, and (S)-13j caused promising halos of growth inhibition.
(§2) The disc diffusion assays against E. coli TOP10 (Thermo Fisher, Waltham, USA), E. coli ATCC 35218, K. pneumoniae ATCC 700603, and P. aeruginosa ATCC 27853 were performed as follows: the bacteria were grown overnight on a Columbia blood agar plate (Oxoid, Basingstoke, UK), and one colony was suspended in sterile saline to yield a suspension of 0.5 McFarland standard. Using a sterile swab, the suspension was spread evenly onto Mueller–Hinton agar (Oxoid, Basingstoke, UK). 0.15 μmol of each compound (dissolved in 10 μL DMSO) was applied onto circular 6 mm diameter filter paper disks, which were then placed on the agar. After incubating the agar plates for 20 h at 37 °C, the diameter of the zone of growth inhibition was measured for each compound.
A general note: In agar diffusion tests the substance spreads into inoculated agar from a disc or well.

The subject of a further experiment is E. coli ATCC 35218. The experiment is described as follows: disc diffusion assay. It is filed as cell-based. Particulars: 0.15 μmol per 6 mm disc. As to the method: as §1, §2
A further experiment has as its system E. coli TOP10. The experiment is described as follows: disc diffusion assay. It is filed as cell-based. The note with it: 0.15 μmol per 6 mm disc. The method, then: as §1, §2
Experiment [1] concerns E. coli D22. The experiment is described as follows: MIC, broth microdilution. It is filed as cell-based. The note with it: Escherichia coli, 20 h, 37 °C, LB. As to the method: (§3) Besides measuring the inhibitory activities toward E. coli LpxC C63A, the antibacterial activities of the synthesized hydroxamic acids were evaluated by determining their minimal inhibitory concentrations (MIC) in broth dilution tests as well as by performing disc diffusion assays (Table 1).
(§4) The MIC values of the compounds were determined by means of the microdilution method using 96-well plates.
(§5) The overnight suspension was diluted 1:1000 in fresh LB. 10 μL of a 2-fold dilution series of the compounds in DMSO and 90 μL of LB were dispensed to each well of a 96-well plate. Then, 100 μL of the inoculated medium was added, resulting in 5 × 10^5 cfu mL^–1, 5% DMSO, and a final concentration range of the test compounds between 64 and 0.016 μg mL^–1. The plates were incubated for 20 h at 37 °C. The MIC was defined as the lowest concentration of the compounds that prevented visible growth after incubation. Each assay was performed at least three times on separate days.
For orientation: Dilution methods test growth across graded concentrations, often in twofold steps.

For experiment [2], the system named is E. coli BL21(DE3). The experiment is described as follows: MIC, broth microdilution. It is filed as cell-based. The note with it: 20 h, 37 °C, LB; for MIC: Escherichia coli. As to the method:
as §3, §4, §5

For experiment [3], the system named is K. pneumoniae ATCC 700603. Put plainly: disc diffusion assay. Particulars: 0.15 μmol per 6 mm disc. It is filed as cell-based, Klebsiella pneumoniae. The method, then:
as §1, §2

For experiment [4], the system named is E. coli D22. The experiment is described as follows: disc diffusion assay. It is filed as cell-based. The note with it: 0.15 μmol per 6 mm disc. The method, then: as §3
(§6) The disc diffusion assays against E. coli BL21(DE3) and the defective strain E. coli D22 were performed as follows: liquid cultures of the bacteria were grown overnight in lysogeny broth (LB)[73] at 37 °C and 200 rpm. 150 μL of an overnight cell suspension was spread evenly onto LB agar plates. 0.15 μmol of each compound (dissolved in 10 or 15 μL DMSO) were applied onto circular filter paper (Ø = 6 mm, Cytiva). Pure DMSO, serving as a negative control, and CHIR-090, serving as a positive control, were also spotted. The agar plates were incubated overnight at 37 °C, and the diameter of the zone of growth inhibition was measured for each compound. Each assay was performed at least three times on separate days.

For experiment [5], the system named is E. coli BL21(DE3). The experiment is described as follows: disc diffusion assay. It is filed as cell-based. The note with it: 0.15 μmol per 6 mm disc. The method, then: as §3, §6
A further experiment has as its target T1, E. coli LpxC C63A (Escherichia coli, UniProt P0A725, C63A).
T1 construct: made in house; host or cells: E. coli BL21(DE3)
Put plainly: fluorescence-based E. coli LpxC C63A enzyme inhibition assay. It is filed as biochemical. The note with it: Ki E. coli LpxC C63A, from IC50 via Cheng–Prusoff. The method, then: In order to determine the inhibitory activities of the compounds of interest toward E. coli LpxC, a fluorescence-based enzyme assay was deployed, in which the formed deacetylated natural product UDP-3-O-[(R)-3-hydroxymyristoyl]glucosamine (2) is transformed into a fluorescent isoindole with o-phthaldialdehyde and 2-mercaptoethanol.[48],[49] […] The KM of E. coli LpxC C63A was determined experimentally using a mass spectrometry-based LpxC assay (Figure S8, Supporting Information, vide infra).
A fluorescence-based microplate assay for LpxC activity was performed as described by Clements et al.[48] The wells in a black, nonbinding, 96-well fluorescence microplate (Greiner Bio One, Frickenhausen) were filled with 93 μL of 26.9 μM UDP-3-O-[(R)-3-hydroxymyristoyl]-N-acetylglucosamine in assay buffer [40 mM sodium morpholinoethanesulfonic acid (pH 6.0), 80 μM dithiothreitol, 0.02% Brij 35]. In order to assay the inhibitors at final concentrations from 20 nM up to 20 μM, 2 μL of a respective dilution of the compounds in DMSO were added. The addition of 5 μL of a solution of purified LpxC (10 μg mL^–1) in assay buffer led to final concentrations of 25 μM UDP-3-O-[(R)-3-hydroxymyristoyl]-N-acetylglucosamine, 15 nM E. coli LpxC C63A, 2% DMSO, and from 20 nM up to 20 μM inhibitor. The microplate was incubated for 30 min at 37 °C in a plate shaker. Then, the biochemical reaction was stopped by adding 40 μL of 0.625 M sodium hydroxide. The reaction mixture was further incubated for 10 min and neutralized by adding 40 μL of 0.625 M acetic acid. The deacetylated product UDP-3-O-[(R)-3-hydroxymyristoyl]glucosamine was converted into a fluorescing isoindole by adding 120 μL of an o-phthaldialdehyde-2-mercaptoethanol solution, which was prepared by dissolving 10 mg of o-phthaldialdehyde in 1 mL of methanol, diluting the mixture with 24 mL of a sodium borate buffer (0.1 M), and finally adding 2.5 μL of 2-mercaptoethanol.[49] Fluorescence was measured with a TriStar^2 S LB 942 plate reader (Berthold, Bad Wildbad) at 340 nm excitation and 460 nm emission wavelengths. Each assay was performed at least three times on separate days. The IC50 values were calculated via Probit-log concentration graphs with the aid of the software Origin and were subsequently converted into Ki values using the Cheng–Prusoff equation.[75],[76]

For orientation: MIC means the least concentration at which growth counts as inhibited. High values mean a less susceptible organism, low ones a more susceptible organism. In general, Ki refers to a measure of affinity in units of concentration, obtained from inhibition or displacement. High values mean lower affinity, low ones higher affinity.

T1 sequence (P0A725 whole entry C63A): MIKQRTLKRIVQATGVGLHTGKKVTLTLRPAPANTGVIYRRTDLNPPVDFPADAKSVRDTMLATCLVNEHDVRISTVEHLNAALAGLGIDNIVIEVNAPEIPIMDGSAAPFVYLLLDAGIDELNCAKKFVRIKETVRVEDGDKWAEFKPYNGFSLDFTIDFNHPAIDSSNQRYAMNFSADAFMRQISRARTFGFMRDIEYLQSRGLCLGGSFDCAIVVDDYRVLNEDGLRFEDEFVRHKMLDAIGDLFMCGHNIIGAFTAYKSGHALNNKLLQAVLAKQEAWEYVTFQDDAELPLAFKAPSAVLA

For the compound `O=C(NC[C@H](OCc1ccc(C#Cc2ccc(CN3CCOCC3)cc2)cc1)C(=O)NO)c1ccc2ccccc2n1` [(S)-13e], in the experiment with P. aeruginosa ATCC 27853, the “Inhibition zone P. aeruginosa ATCC 27853” value was 6.3 ± 0.6 mm. The “Inhibition zone E. coli ATCC 35218” value in the experiment on E. coli ATCC 35218 came out at 7.7 ± 1.5 mm. For the same compound, the “Inhibition zone E. coli TOP 10” value in the experiment on E. coli TOP10 came to 8.0 ± 0 mm. Besides, the results for the MIC against E. coli D22 [1] and against E. coli BL21(DE3) [2] were 0.25 µg/mL (≈ 0.443 µM) and greater than 16 µg/mL, respectively. In addition, the “Inhibition zone K. pneumoniae ATCC 700603” value in experiment [3] is given as less than 6 mm. For the same compound, the “Inhibition zone E. coli D22” value in the experiment on E. coli D22 [4] worked out at 16.0 ± 2.5 mm. In addition, the “Inhibition zone E. coli BL21(DE3)” value with E. coli BL21(DE3) [5] is given as no more than 6 mm. Besides, on E. coli LpxC C63A, the affinity corresponds to a Ki of 377 ± 83 nM.

As to `O=C(NC[C@H](OCc1ccc(C#Cc2ccc(CN3CCOCC3)cc2)cc1)C(=O)NO)c1cnc2ccccc2c1` [(S)-13f], the “Inhibition zone P. aeruginosa ATCC 27853” value in the experiment with P. aeruginosa ATCC 27853 is less than 6 mm. The “Inhibition zone E. coli ATCC 35218” value in the experiment with E. coli ATCC 35218 was 15.0 ± 0 mm. Moreover, the “Inhibition zone E. coli TOP 10” value in the experiment on E. coli TOP10 is given as 18.0 ± 6.0 mm. Also, the results for the minimum inhibitory concentration (MIC) in the experiment with E. coli D22 [1] and against E. coli BL21(DE3) [2] were 0.25 µg/mL (≈ 0.443 µM) and greater than 16 µg/mL, respectively. In experiment [3], the “Inhibition zone K. pneumoniae ATCC 700603” value was less than 6 mm. For the same compound, the “Inhibition zone E. coli D22” value in the experiment on E. coli D22 [4] is 29.0 ± 1.0 mm. Also, the “Inhibition zone E. coli BL21(DE3)” value in the experiment on E. coli BL21(DE3) [5] worked out at 11.5 ± 2.1 mm. For the same compound, the affinity at E. coli LpxC C63A, expressed as Ki, was 117 ± 21 nM.

With `O=C(NC[C@H](OCc1ccc(C#Cc2ccc(CN3CCOCC3)cc2)cc1)C(=O)NO)c1cc2ccccc2[nH]1` [(S)-13g], the “Inhibition zone P. aeruginosa ATCC 27853” value with P. aeruginosa ATCC 27853 is less than 6 mm. The “Inhibition zone E. coli ATCC 35218” value in the experiment with E. coli ATCC 35218 came to 10.7 ± 0.6 mm. Moreover, in the experiment on E. coli TOP10, the “Inhibition zone E. coli TOP 10” value worked out at 16.0 ± 6.1 mm. In addition, inhibition of growth in the experiment on E. coli D22 [1] (MIC) required 0.063 µg/mL (≈ 0.114 µM). In addition, in the experiment on E. coli BL21(DE3) [2], the “MIC E. coli BL21(DE3)” value is 8.0 µg/mL (≈ 14.5 µM) and the MIC is 4 to 8 µg/mL (≈ 7.24 to 14.5 µM). Besides, in experiment [3], the “Inhibition zone K. pneumoniae ATCC 700603” value is less than 6 mm. Besides, the “Inhibition zone E. coli D22” value in the experiment on E. coli D22 [4] is given as 23.0 ± 1.0 mm. In addition, the “Inhibition zone E. coli BL21(DE3)” value in the experiment on E. coli BL21(DE3) [5] is listed as 10.0 ± 1.0 mm. At E. coli LpxC C63A, the Ki turned out to be 87 ± 58.5 nM.

As for `O=C(NC[C@H](OCc1ccc(C#Cc2ccc(CN3CCOCC3)cc2)cc1)C(=O)NO)c1cccc2[nH]ccc12` [(S)-13i], in the experiment with P. aeruginosa ATCC 27853, the “Inhibition zone P. aeruginosa ATCC 27853” value turned out to be 6.3 ± 0.6 mm. In the experiment with E. coli ATCC 35218, the “Inhibition zone E. coli ATCC 35218” value is listed as 17.0 ± 3.5 mm. For the same compound, the “Inhibition zone E. coli TOP 10” value in the experiment with E. coli TOP10 was 23.0 ± 1.0 mm. Further, the lowest concentration to inhibit growth in the experiment with E. coli D22 [1] (MIC) was 0.031 µg/mL (≈ 0.0561 µM). Besides, the “Inhibition zone K. pneumoniae ATCC 700603” value in experiment [3] was determined as 7.3 ± 1.2 mm. Besides, the “Inhibition zone E. coli D22” value in the experiment on E. coli D22 [4] is on record as greater than 30 mm. For the same compound, the “Inhibition zone E. coli BL21(DE3)” value in the experiment on E. coli BL21(DE3) [5] was found to be 20.4 ± 1.6 mm. On E. coli LpxC C63A, this compound came in with a Ki of 15.3 ± 3.6 nM.

With `O=C(NO)[C@H](CN(Cc1ccccc1)Cc1ccccc1)OCc1ccc(C#Cc2ccc(CN3CCOCC3)cc2)cc1` [(S)-37, (S)-3-(Dibenzylamino)-N-hydroxy-2-[(4-{[4-(morpholinomethyl)phenyl]ethynyl}benzyl)oxy]propanamide], the MIC with E. coli D22 [1] was 16 µg/mL (≈ 27.1 µM); in the experiment with E. coli BL21(DE3) [2], greater than 16 µg/mL. The “Inhibition zone E. coli D22” value in the experiment with E. coli D22 [4] is 7.7 ± 1.2 mm. The “Inhibition zone E. coli BL21(DE3)” value with E. coli BL21(DE3) [5] is no more than 6 mm. The same compound gave a Ki at E. coli LpxC C63A greater than 2540 nM.
